According to US20250206718A1, “NITROGEN-CONTAINING HETEROCYCLIC DERIVATIVE INHIBITOR, PREPARATION METHOD THEREFOR AND USE THEREOF” (SHANGHAI HANSOH BIOMEDICAL CO., LTD., priority 2022, published 2025):

Columns and labels:
[1] = biological target: Ba/F3 EGFR Del19/T790M/C797S cells (Homo sapiens, UniProt P00533, T790M/C797S, cells depend on it, form not given); assay: Cell proliferation inhibition (Cell Titer-Glo), Ba/F3 EGFR Del19/T790M/C797S; type: cell-based, mouse; conditions: 72 hours, CellTiter-Glo, read-out: Ba/F3 EGFR Del19_T790M_C797S IC50
Sequence of Ba/F3 EGFR Del19/T790M/C797S cells (P00533 with tags, fused parts or gaps DEL746-750/T790M/C797S, form open): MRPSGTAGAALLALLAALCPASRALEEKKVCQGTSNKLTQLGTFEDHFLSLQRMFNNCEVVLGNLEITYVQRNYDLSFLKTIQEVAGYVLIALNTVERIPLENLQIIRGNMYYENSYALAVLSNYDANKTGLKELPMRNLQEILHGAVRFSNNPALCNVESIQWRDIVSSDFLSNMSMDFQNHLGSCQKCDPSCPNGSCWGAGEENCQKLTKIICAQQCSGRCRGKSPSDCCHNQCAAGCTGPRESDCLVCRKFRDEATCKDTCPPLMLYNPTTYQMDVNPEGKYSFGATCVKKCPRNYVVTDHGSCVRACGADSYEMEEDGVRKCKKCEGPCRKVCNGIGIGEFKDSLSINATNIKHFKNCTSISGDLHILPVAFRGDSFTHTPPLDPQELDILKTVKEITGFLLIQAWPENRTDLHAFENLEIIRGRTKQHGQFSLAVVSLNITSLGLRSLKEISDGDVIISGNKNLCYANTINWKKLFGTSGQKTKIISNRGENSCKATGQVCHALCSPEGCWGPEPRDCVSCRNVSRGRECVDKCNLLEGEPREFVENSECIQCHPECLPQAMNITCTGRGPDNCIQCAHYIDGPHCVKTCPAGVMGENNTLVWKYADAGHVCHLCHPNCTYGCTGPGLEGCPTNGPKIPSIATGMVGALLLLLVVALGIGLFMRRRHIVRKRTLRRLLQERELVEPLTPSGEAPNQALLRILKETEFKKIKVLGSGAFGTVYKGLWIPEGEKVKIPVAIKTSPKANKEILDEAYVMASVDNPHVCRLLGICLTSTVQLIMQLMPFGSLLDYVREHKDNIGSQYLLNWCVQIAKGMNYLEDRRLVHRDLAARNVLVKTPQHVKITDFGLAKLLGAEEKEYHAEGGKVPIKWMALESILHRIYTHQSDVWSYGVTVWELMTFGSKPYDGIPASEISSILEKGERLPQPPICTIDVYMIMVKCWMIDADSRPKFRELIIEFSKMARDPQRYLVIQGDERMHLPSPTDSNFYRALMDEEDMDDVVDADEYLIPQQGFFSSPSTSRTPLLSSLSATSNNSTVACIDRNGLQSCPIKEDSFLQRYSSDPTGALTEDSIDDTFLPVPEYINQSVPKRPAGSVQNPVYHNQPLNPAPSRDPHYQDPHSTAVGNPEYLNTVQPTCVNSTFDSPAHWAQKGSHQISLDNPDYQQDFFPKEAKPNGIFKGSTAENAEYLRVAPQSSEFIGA
From the text: (§1) Experimental objective: The objective of this test example is to test the inhibitory activity of compounds on the proliferation of different EGFR C797S drug-resistant mutant cell lines Ba/F3 EGFR Del19/T790M/C797S, Ba/F3 EGFR L858R/T790M/C797S, and Ba/F3 EGFR Del19/C797S.
(§2) • Ba/F3 EGFR Del19/T790M/C797S cells were purchased from KYinno Biotechnology Co., Ltd.; • Ba/F3 EGFR Del19/C797S cells were purchased from CoBioer Biosciences Co., Ltd.; • Ba/F3 EGFR L858R/T790M/C797S cells were purchased from CoBioer Biosciences Co., Ltd.; • Cell Titer-Glo was purchased from Promega, with a catalog number of G7573; • RPMI 1640 was purchased from Gibco, with a catalog number of 22400089; • FBS was purchased from Gibco, with a catalog number of 10091148; • cell culture plates were purchased from Corning, with a catalog number of 3610.
(§3) The inhibitory activity of the compound on the proliferation of different EGFR C797S drug-resistant mutant cell lines was detected using the Cell Titer-Glo method. The different cell lines were cultured in RPMI 1640 complete culture medium containing 10% FBS under conditions of 37° C. and 5% CO2, the cells were collected by centrifugation when growing to a certain density, and adjusted to appropriate cell density after counting, the cells were spread on a white 96-well plate at 90 μL/well, and cultured in a 37° C., 5% CO2 incubator overnight, prepared compound solutions of different concentrations were added at 10 μL/well, corresponding solvent controls were set, and all wells were cultured in a 37° C., 5% CO2 incubator for 72 hours, 50 μL of CellTiter-Glo solution was added to each well, shook and mixed evenly, and incubated in the dark for 10 minutes, and a BioTek Synergy H1 microplate reader was used for reading.
(§4) The luminescence signal value was used to calculate the inhibition rate. Graphpad Prism software was used to fit the concentration and inhibition rate to a nonlinear regression curve, so as to obtain the IC50 value, as shown in the Table below for details.

[2] = biological target: Ba/F3 EGFR L858R/T790M/C797S cells (Homo sapiens, UniProt P00533, T790M/C797S/L858R, cells depend on it); assay: Cell proliferation inhibition (Cell Titer-Glo), Ba/F3 EGFR L858R/T790M/C797S; type: cell-based, mouse; conditions: 72 hours, CellTiter-Glo, read-out: Ba/F3 EGFR L858R_T790M_C797S IC50
Sequence of Ba/F3 EGFR L858R/T790M/C797S cells (P00533 whole entry T790M/C797S/L858R): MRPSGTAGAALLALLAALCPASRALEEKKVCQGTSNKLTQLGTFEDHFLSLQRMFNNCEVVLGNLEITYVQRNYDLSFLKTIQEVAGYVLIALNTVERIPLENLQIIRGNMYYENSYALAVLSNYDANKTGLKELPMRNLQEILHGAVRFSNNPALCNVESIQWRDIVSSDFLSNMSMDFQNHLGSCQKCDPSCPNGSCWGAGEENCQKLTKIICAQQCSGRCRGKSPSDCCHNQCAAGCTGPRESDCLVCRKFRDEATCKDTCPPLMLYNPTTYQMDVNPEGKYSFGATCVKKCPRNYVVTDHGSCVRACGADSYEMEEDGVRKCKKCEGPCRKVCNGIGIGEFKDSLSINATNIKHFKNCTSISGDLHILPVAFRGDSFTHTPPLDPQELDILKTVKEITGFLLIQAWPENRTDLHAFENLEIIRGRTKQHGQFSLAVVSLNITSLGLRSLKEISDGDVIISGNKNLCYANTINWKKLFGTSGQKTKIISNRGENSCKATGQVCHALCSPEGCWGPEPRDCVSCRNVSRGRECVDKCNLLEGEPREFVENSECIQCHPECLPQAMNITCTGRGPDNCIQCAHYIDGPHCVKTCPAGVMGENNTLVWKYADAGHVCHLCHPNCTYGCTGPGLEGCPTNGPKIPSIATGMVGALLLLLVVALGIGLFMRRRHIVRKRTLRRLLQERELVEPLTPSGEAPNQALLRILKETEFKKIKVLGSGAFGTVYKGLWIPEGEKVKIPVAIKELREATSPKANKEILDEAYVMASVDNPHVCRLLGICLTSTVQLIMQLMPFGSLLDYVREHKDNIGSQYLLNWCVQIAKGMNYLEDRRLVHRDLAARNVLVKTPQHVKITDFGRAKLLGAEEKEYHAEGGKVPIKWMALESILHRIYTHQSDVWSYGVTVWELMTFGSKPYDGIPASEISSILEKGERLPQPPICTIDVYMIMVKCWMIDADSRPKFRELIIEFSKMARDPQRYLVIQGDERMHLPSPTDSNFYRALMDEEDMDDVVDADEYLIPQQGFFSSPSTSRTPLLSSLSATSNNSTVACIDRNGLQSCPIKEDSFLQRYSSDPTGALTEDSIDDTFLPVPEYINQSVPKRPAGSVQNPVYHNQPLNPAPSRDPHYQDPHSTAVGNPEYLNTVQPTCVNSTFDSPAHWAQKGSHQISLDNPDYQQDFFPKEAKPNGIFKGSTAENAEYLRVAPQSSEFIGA
From the text: as §1, §2, §3, §4

[3] = biological target: Ba/F3 EGFR Del19/C797S cells (Homo sapiens, UniProt P00533, C797S, cells depend on it, form not given); assay: Cell proliferation inhibition (Cell Titer-Glo), Ba/F3 EGFR Del19/C797S; type: cell-based, mouse; conditions: 72 hours, CellTiter-Glo, read-out: Ba/F3 EGFR Del19/C797S IC50
Sequence of Ba/F3 EGFR Del19/C797S cells (P00533 with tags, fused parts or gaps DEL746-750/C797S, form open): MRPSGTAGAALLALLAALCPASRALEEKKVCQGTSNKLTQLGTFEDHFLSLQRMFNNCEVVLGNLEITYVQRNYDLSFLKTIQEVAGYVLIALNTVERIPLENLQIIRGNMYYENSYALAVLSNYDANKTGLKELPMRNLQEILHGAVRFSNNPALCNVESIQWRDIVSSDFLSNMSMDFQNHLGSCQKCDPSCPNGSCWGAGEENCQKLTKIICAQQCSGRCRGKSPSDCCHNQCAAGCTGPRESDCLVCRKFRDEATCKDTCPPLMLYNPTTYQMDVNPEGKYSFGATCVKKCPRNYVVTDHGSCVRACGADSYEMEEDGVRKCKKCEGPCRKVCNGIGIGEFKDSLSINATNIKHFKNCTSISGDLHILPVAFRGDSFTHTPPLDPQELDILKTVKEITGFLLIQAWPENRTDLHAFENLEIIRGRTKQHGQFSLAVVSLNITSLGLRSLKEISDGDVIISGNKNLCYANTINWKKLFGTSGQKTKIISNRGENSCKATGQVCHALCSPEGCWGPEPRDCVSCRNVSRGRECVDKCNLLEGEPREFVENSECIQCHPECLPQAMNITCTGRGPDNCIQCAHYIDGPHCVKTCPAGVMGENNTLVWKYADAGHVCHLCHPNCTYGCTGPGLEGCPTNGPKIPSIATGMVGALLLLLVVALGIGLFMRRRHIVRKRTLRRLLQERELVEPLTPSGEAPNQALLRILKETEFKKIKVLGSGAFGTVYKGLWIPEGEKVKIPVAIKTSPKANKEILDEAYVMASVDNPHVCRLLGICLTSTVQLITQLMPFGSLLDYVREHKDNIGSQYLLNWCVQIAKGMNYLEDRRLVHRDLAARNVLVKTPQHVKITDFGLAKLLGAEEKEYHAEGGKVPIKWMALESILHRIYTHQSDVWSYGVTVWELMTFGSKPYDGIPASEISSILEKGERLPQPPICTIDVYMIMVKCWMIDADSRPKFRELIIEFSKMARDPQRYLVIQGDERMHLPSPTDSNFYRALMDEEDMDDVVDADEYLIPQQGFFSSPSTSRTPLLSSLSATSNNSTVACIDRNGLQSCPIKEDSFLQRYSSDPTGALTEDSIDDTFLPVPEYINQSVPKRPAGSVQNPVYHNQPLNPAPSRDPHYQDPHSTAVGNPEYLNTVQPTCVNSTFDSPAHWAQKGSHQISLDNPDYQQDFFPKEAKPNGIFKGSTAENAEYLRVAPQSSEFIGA
Procedure, shortened: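 Ba/F3 lines carrying the EGFR mutants, grown in RPMI 1640 with 10% FBS, were seeded overnight then exposed to compound for 72 h at 37 °C, 5% CO2. Viability by CellTiter-Glo luminescence; IC50 from nonlinear regression of inhibition versus concentration.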

[4] = Rat pharmacokinetic evaluation test; type: in vivo; conditions: Sprague-Dawley (SD), po, SD rats, male, p.o. 5 mg/kg, plasma
Description: SD rats were used as test animals to study the pharmacokinetic behavior of the compounds of the present invention in the rat body (plasma) after oral administration at a dose of 5 mg/kg.
2.2 Experimental Animals: 3 SD Rats/Group, Male, from Shanghai Jiesijie Experimental Animal Co., Ltd., Animal Production License Number (SCXK (Shanghai) 2013-0006 No. 311620400001794).
• Oral administration drug preparation: 20% solutol HS15 in 0.5% MC (methylcellulose)
20 g of a Solutol HS15 solid and 0.5 g of a MC solid powder were weighed and dissolved in 80 mL of purified water, and the mixture was vortexed, mixed until uniform, and subjected to ultrasound treatment to obtain a clear solution of 20% solutol HS15 in 0.5% MC.
The example compound was weighed into a 20 mL glass bottle, the solution was added thereto and the mixture was subjected to ultrasound treatment for 10 minutes to obtain a clear solution with a concentration of 0.5 mg/mL.
3 male SD rats were administered p.o. respectively after the 3 male SD rats were fasted overnight; the p.o. dose was 5 mg/kg and the administration volume was 10 mL/kg.
Blood collection: Before and after administration to rats, 0.2 mL of blood was collected from the jugular vein at 0.25, 0.5, 1, 2, 4, 6, 8 and 24 h, and placed in an EDTA-K2 anticoagulation tube, which was centrifuged at 6000 rpm at 4° C. for 6 min to separate plasma which was stored at −80° C.; the rats were fed 4 h after administration.
1) 160 μL of acetonitrile was added to 40 μL of plasma sample for precipitation, mixed and centrifuged at 3500×g for 5 to 20 min.
2) the treated supernatant solution was taken and subjected to LC/MS/MS to analyze the concentrations of the test compounds. LC/MS/MS analysis instrument: AB Sciex API 4000 Qtrap.
• Liquid phase conditions: Shimadzu LC-20AD pump • Chromatographic column: Agilent ZORBAX XDB-C18 (50×2.1 mm, 3.5 μm) mobile phase: liquid A is 0.1% aqueous formic acid solution, liquid B is acetonitrile • Flow rate: 0.4 mL/min • Elution time: 0-4.0 min, the eluent is as follows:
The main pharmacokinetic parameters were calculated using WinNonlin 6.1.

## CC(C)c1ccc(N2C[C@H](N(C)S(C)(=O)=O)[C@H]2C)c2cnc(Nc3ccnc(-c4cn(C)nc4Cl)n3)cc12 [Example 122, N-((2R,3S)-1-(3-((2-(3-chloro-1-methyl-1H-pyrazol-4-yl)pyrimidin-4-yl)amino)-5-isopropylisoquinolin-8-yl)-2-methylazetidin-3-yl)-N-methyl methanesulfonamide]
[1]
  GI50: 2.9 nM
[2]
  GI50: 8.2 nM
[3]
  GI50: 5.1 nM
[4]
  AUC(0-t): 1260 ng·h/mL
  Cmax: 97 ng/mL
  half-life: 3.5 h

## CC(C)c1ccc(N2C[C@H](CS(C)(=O)=O)[C@H]2C)c2cnc(Nc3ccnc(-c4cn(C)nc4Cl)n3)cc12 [Example 5, N-(2-(3-chloro-1-methyl-1H-pyrazol-4-yl)pyrimidin-4-yl)-5-isopropyl-8-((2R,3S)-2-methyl-3-((methanesulfonyl)methyl)azabut-1-yl)isoquinolin-3-amine]
[1]
  GI50: 3.7 nM
[2]
  GI50: 11 nM
[3]
  GI50: 5.1 nM
[4]
  AUC(0-t): 1260 ng·h/mL
  Cmax: 239 ng/mL
  half-life: 4.1 h

## CC(C)c1cnc(N2C[C@H](CS(C)(=O)=O)[C@H]2C)c2cnc(Nc3ccnc(-c4cn(C)nc4Cl)n3)cc12 [Example 132, N-(2-(3-chloro-1-methyl-1H-pyrazol-4-yl)pyrimidin-4-yl)-5-isopropyl-8-((2R,3S)-2-methyl-3-((methanesulfonyl)methyl)azetidin-1-yl)-2,7-diazanaphthalen-3-amine]
[1]
  GI50: 5.6 nM
[2]
  GI50: 15 nM
[3]
  GI50: 6.4 nM
[4]
  AUC(0-t): 1570 ng·h/mL
  Cmax: 180 ng/mL
  half-life: 3 h

## CC(C)c1c(F)cc(N2C[C@H](N(C)S(C)(=O)=O)[C@H]2C)c2cnc(Nc3ccnc(-c4cn(C)nc4Cl)n3)cc12 [Example 121, N-((2R,3S)-1-(3-((2-(3-chloro-1-methyl-1H-pyrazol-4-yl)pyrimidin-4-yl)amino)-6-fluoro-5-isopropylisoquinolin-8-yl)-2-methylazetidin-3-yl)-N-methyl methanesulfonamide]
[1]
  GI50: 4.5 nM
[2]
  GI50: 15 nM
[3]
  GI50: 6.2 nM

## Cc1nn(C)cc1-c1nccc(Nc2cc3c(C(C)C)ccc(N4C[C@H](N(C)S(C)(=O)=O)[C@H]4C)c3cn2)n1 [Example 126, N-((2R,3S)-1-(3-((2-(1,3-dimethyl-1H-pyrazol-4-yl)pyrimidin-4-yl)amino)-5-isopropylisoquinolin-8-yl)-2-methylazetidin-3-yl)-N-methyl methanesulfonamide]
[1]
  GI50: 2.1 nM
[2]
  GI50: 7.5 nM
[3]
  GI50: 3 nM
[4]
  AUC(0-t): 3140 ng·h/mL
  Cmax: 240 ng/mL
  half-life: 3.3 h

## CC(C)c1c(F)cc(N2C[C@H](NS(C)(=O)=O)[C@H]2C)c2cnc(Nc3ccnc(-c4cn(C)nc4Cl)n3)cc12 [Example 186, N-((2R,3S)-1-(3-((2-(3-chloro-1-methyl-1H-pyrazol-4-yl)pyrimidin-4-yl)amino)-6-fluoro-5-isopropylisoquinolin-8-yl)-2-methylazetidin-3-yl)methanesulfonamide]
[1]
  GI50: 5.9 nM
[2]
  GI50: 8.8 nM
[3]
  GI50: 2.6 nM
